EC50 and Kd data for three compounds are collected here from patent US20260250325A1, “Antiviral Polypeptide Membrane Fusion Inhibitor, and Preparation Method and Application Thereof” (priority 2025, published 2026).

Assay [1] deals with hMPV B1. The assay is classed as cell-based. As to conditions: Vero cells, plaque reduction. The method, boiled down: (§1)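 Plaque reduction in Vero cells (40000/well), 8 concentrations in duplicate; compound pre-mixed with ~200 PFU virus 1 h at 33° C, adsorbed 2 h at 37° C, then overlay with compound, 0.8% CMC, 5 μg/ml trypsin, 0.5% DMSO for 1 day at 33° C. Plaques immunostained (TrueBlue) and counted; EC50 by four-parameter fit.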

Assay [2] deals with hMPV A2. It is filed as cell-based. As to conditions: Vero cells, plaque reduction. The method, boiled down:
as §1

In assay [3] the target is T1, hPIV-N51 (139-189) (Human parainfluenza 3 virus, UniProt P06828).
T1 construct: hPIV-N51 (139-189)
Put plainly: SPR affinity to hPIV-N51 coupled on CM5 chip. The assay is classed as binding.

Where a SMILES comes first, the peptide text is derived from it. The star is where a group is joined. Succinyl(4-O-cholesteryl) = CC(C)CCC[C@@H](C)[C@H]1CC[C@H]2[C@@H]3CC=C4C[C@@H](OC(=O)CCC(=O)*)CC[C@]4(C)[C@H]3CC[C@]12C

T1 sequence (P06828 139-189): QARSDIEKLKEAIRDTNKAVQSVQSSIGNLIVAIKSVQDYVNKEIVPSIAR

With `CC[C@H](C)[C@H](NC(=O)[C@H](CCCCN)NC(=O)[C@H](CCC(=O)O)NC(=O)[C@H](CC(C)C)NC(=O)[C@H](CO)NC(=O)[C@H](CCC(N)=O)NC(=O)[C@H](CC(N)=O)NC(=O)[C@@H](NC(=O)[C@H](CCCCN)NC(=O)[C@H](CCC(=O)O)NC(=O)[C@H](CC(N)=O)NC(=O)[C@@H](NC(=O)[C@H](CCC(N)=O)NC(=O)[C@H](CO)NC(=O)[C@H](C)NC(=O)[C@H](CC(=O)O)NC(=O)[C@H](Cc1ccccc1)NC(=O)[C@@H](NC(=O)[C@H](CC(C)C)NC(=O)[C@H](CCC(=O)O)NC(=O)[C@H](CC(=O)O)NC(=O)[C@H](Cc1ccc(O)cc1)NC(C)=O)C(C)C)C(C)C)[C@@H](C)CC)C(=O)N[C@@H](CCCNC(=N)N)C(=O)N[C@@H](CCCCN)C(=O)N[C@@H](CO)C(=O)N[C@@H](CC(=O)O)C(=O)N[C@@H](CCC(=O)O)C(=O)N[C@@H](CC(C)C)C(=O)N[C@@H](CC(C)C)C(=O)N[C@@H](Cc1c[nH]cn1)C(=O)N[C@@H](CC(N)=O)C(=O)N[C@H](C(=O)NCC(=O)N[C@@H](CO)C(=O)NCC(=O)N[C@@H](CO)C(=O)NCC(=O)N[C@@H](CCCCNC(=O)CCC(=O)O[C@H]1CC[C@@]2(C)C(=CC[C@H]3[C@@H]4CC[C@H]([C@H](C)CCCC(C)C)[C@@]4(C)CC[C@@H]32)C1)C(N)=O)C(C)C` [Compound 25] (Ac-YDELVFDASQVNEKINQSLEKIRKSDELLHNVGSGSGK(Succinyl(4-O-cholesteryl))-NH2), the EC50 came to 38.1 nM in assay [1] and 86.4 nM in assay [2]. This compound also showed a Kd in assay [3] of 74.6 µM.

Turning to “Ac-WDEFDASISQVNEKINQSLEEIRKSDELLHNVNAGLGSGSGK(Succinyl(4-O-cholesteryl))-NH2 [Compound 27]”, the EC50 in assay [1] turned out to be 10.5 nM; in assay [2], 78.3 nM. Moreover, binding in assay [3] was put at a Kd of 0.812 µM.

On to `CC[C@H](C)[C@H](NC(=O)[C@H](CO)NC(=O)[C@H](C)NC(=O)[C@H](CC(=O)O)NC(=O)[C@H](Cc1ccccc1)NC(=O)[C@H](CCC(=O)O)NC(=O)[C@H](CC(=O)O)NC(C)=O)C(=O)N[C@@H](CO)C(=O)N[C@@H](CCC(N)=O)C(=O)N[C@H](C(=O)N[C@@H](CC(N)=O)C(=O)N[C@@H](CCC(=O)O)C(=O)N[C@@H](CCCCN)C(=O)N[C@H](C(=O)N[C@@H](CC(N)=O)C(=O)N[C@@H](CCC(N)=O)C(=O)N[C@@H](CO)C(=O)N[C@@H](CC(C)C)C(=O)N[C@@H](CCC(=O)O)C(=O)N[C@@H](CCC(=O)O)C(=O)N[C@H](C(=O)N[C@@H](CCCNC(=N)N)C(=O)N[C@@H](CCCCN)C(=O)N[C@@H](CO)C(=O)N[C@@H](CC(=O)O)C(=O)N[C@@H](CCC(=O)O)C(=O)N[C@@H](CC(C)C)C(=O)N[C@@H](CC(C)C)C(=O)N[C@@H](Cc1c[nH]cn1)C(=O)N[C@@H](CC(N)=O)C(=O)N[C@@H](CCC(=O)O)C(=O)N[C@@H](C)C(=O)N[C@@H](C)C(=O)N[C@@H](C)C(=O)N[C@@H](CCCCN)C(=O)N[C@@H](CCCCNC(=O)CCC(=O)O[C@H]1CC[C@@]2(C)C(=CC[C@H]3[C@@H]4CC[C@H]([C@H](C)CCCC(C)C)[C@@]4(C)CC[C@@H]32)C1)C(N)=O)[C@@H](C)CC)[C@@H](C)CC)C(C)C` [Compound 28] (Ac-DEFDASISQVNEKINQSLEEIRKSDELLHNEAAAKK(Succinyl(4-O-cholesteryl))-NH2), for which the 50% effective concentration (EC50) came out at 13.8 nM in assay [1] and 58.6 nM in assay [2]. In assay [3], this compound gave a Kd of 983 µM.
